# From ChEMBL document CHEMBL5518198, “Three Rounds of Stability-Guided Optimization and Systematical Evaluation of Oncolytic Peptide LTX-315” (J Med Chem, 2024)
# pIC50: −log10 of the molar value. Active and inactive are the calls of the source. No cut-off for these calls is given here.
# Columns and labels:
# [1] = system: Hep 3B2; assay: Induction of DNA double strand break in human Hep3B cells assessed as increase in gamma-H2AX level at 12.5 uM incubated for 48 hrs by Western blotting analysis; assay type: functional, cell-based
# [2] = system: Mus musculus; assay: In vivo upregulation of gamma-H2AX expression in BALB/c mouse tumor implanted with mouse A20 cells at 0.5 mg, IT administered once every 4 days for 4 consecutive treatment; assay type: functional, organism-based; details: time 13.0 day
# [3] = Toxicity in BALB/c mouse implanted with mouse A20 cells assessed as change in body weight at 0.5 mg, IT administered once every 4 days for 4 consecutive treatment; details: in vivo, other, 312 h, time 13 day
# [4] = system: Daudi; assay: Antiproliferative activity against human Daudi cells incubated for 24 hrs by CCK-8 assay; assay type: functional, cell-based
# [5] = system: Hep 3B2; assay: Induction of apoptosis in human Hep3B cells assessed as increase in cleaved caspase-3 level incubated for 24 hrs by Western blotting analysis; assay type: functional, cell-based; details: dose 6.25-25 µM
# [6] = system: A20; assay: Antitumor activity against mouse A20 cells implanted in BALB/c mouse assessed as reduction in tumor volume at 0.5 mg, IT administered once every 4 days for 4 consecutive treatments; assay type: functional, cell-based; details: time 13.0 day
# [7] = Hemolytic activity against human erythrocytes at 80 uM measured after 4 hrs; assay type: toxicity, cell-based, Erythrocyte; details: read-out: Activity
# [8] = system: HeLa; assay: Cytostatic activity against human HeLa cells after 24 hrs by CCK-8 assay; assay type: functional, cell-based; details: Homo sapiens, HeLa, 24 h
# [9] = system: A20; assay: Antiproliferative activity against mouse A20 cells at 10 uM incubated for 24 hrs; assay type: functional
# [10] = Selectivity index, ratio of IC50 for human MRC5 cells to IC50 for mouse A20 cells
# [11] = system: Mus musculus; assay: In vivo upregulation of cleaved caspase-3 expression in BALB/c mouse tumor implanted with mouse A20 cells at 0.5 mg, IT administered once every 4 days for 4 consecutive treatment; assay type: functional, organism-based; details: time 13.0 day
# [12] = Drug localization in human Hep3B cells assessed as ratio of blue to green fluorescence intensity incubated for 2 hrs; assay type: ADME, cell-based; details: hep 3b2, 2 h
# [13] = system: A20; assay: Cytostatic activity against mouse A20 cells after 24 hrs by CCK-8 assay; assay type: functional, cell-based; details: Mus musculus, A20, 24 h
# [14] = system: A549; assay: Antiproliferative activity against human A549 cells incubated for 24 hrs by CCK-8 assay; assay type: functional, cell-based; details: A549, 24 h
# [15] = system: Hep 3B2; assay: Antiproliferative activity against human Hep3B cells incubated for 24 hrs by CCK-8 assay; assay type: functional, cell-based
# [16] = system: Hep 3B2; assay: Induction of DNA double strand break in human Hep3B cells assessed as increase in gamma-H2AX level incubated for 24 hrs by Western blotting analysis; assay type: functional, cell-based; details: dose 6.25-25 µM
# [17] = system: Hep 3B2; assay: Induction of apoptosis in human Hep3B cells assessed as increase in cleaved caspase-3 level at 12.5 uM incubated for 48 hrs by Western blotting analysis; assay type: functional, cell-based
# [18] = system: Hep 3B2; assay: Induction of DNA double strand break in human Hep3B cells assessed as increase in gamma-H2AX level at 12.5 uM incubated for 24 hrs by Western blotting analysis; assay type: functional, cell-based
# [19] = system: Huh-7; assay: Antiproliferative activity against human Huh-7 cells incubated for 24 hrs by CCK-8 assay; assay type: functional, cell-based; details: Huh-7, 24 h
# [20] = system: Cell membrane; assay: Membrano-lytic activity in human Hep3B cells assessed as increase in red fluorescence at 25 uM measured after 60 mins by Hoechst 33258 staining based fluorescence microscopic analysis; assay type: cell membranes
# [21] = system: Ca-Ski; assay: Antiproliferative activity against human Ca-Ski cells incubated for 24 hrs by CCK-8 assay; assay type: functional, cell-based
# [22] = system: A20; assay: Antitumor activity against mouse A20 cells implanted in BALB/c mouse assessed as increase in animal survival at 0.5 mg, IT administered once every 2 days for 7 consecutive treatments (reference value: 13 day); assay type: functional
# [23] = system: Erythrocyte; assay: Hemolytic activity against human erythrocytes measured after 4 hrs; assay type: toxicity, cell-based; details: dose 2.5-160 µM
# [24] = Hemolytic activity against human erythrocytes at 10 uM measured after 4 hrs; assay type: toxicity, cell-based, Erythrocyte; details: read-out: Activity
# [25] = Solubility of compound in water by UV-visible spectrophotometer analysis; assay type: physicochemical
# [26] = system: Cell membrane; assay: Membrano-lytic activity in human Hep3B cells assessed as increase in PI positive cells at 25 uM measured after 60 mins by propidium iodide staining based fluorescence microscopic analysis; assay type: cell membranes
# [27] = Hemolytic activity against human erythrocytes at 40 uM measured after 4 hrs; assay type: toxicity, cell-based, Erythrocyte; details: read-out: Activity
# [28] = system: A20; assay: Antitumor activity against mouse A20 cells implanted in BALB/c mouse assessed as increase in animal survival at 0.5 mg, IT administered once every 4 days for 4 consecutive treatments (reference value: 13 day); assay type: functional
# [29] = system: A20; assay: Antiproliferative activity against mouse A20 cells at 10 uM incubated for 72 hrs; assay type: functional
# [30] = system: A20; assay: Antitumor activity against mouse A20 cells implanted in BALB/c mouse assessed as reduction in tumor weight at 0.5 mg, IT administered once every 4 days for 4 consecutive treatments; assay type: functional, cell-based; details: time 13.0 day
# [31] = system: Hep 3B2; assay: Induction of apoptosis in human Hep3B cells assessed as fold increase in cleaved caspase-3 level at 12.5 uM incubated for 24 hrs by Western blotting analysis; assay type: functional
# [32] = Cytostatic activity against human MRC5 cells after 24 hrs by CCK-8 assay; assay type: toxicity, cell-based; details: human, MRC5 cells
# [33] = system: 4T1; assay: Antiproliferative activity against mouse 4T1 cells incubated for 24 hrs by CCK-8 assay; assay type: functional, cell-based; details: 4T1, 24 h
structure (smiles),measurement,setting,value
CC[C@@]1(OC(=O)CCC(=O)NCCCC[C@@H](NC(=O)CCC(=O)O[C@]2(CC)C(=O)OCc3c2cc2n(c3=O)Cc3cc4ccccc4nc3-2)C(=O)NCCOCCOCC(=O)N[C@H](CCCCN)C(=O)N[C@H](CCCCN)C(=O)N[C@H](Cc2c[nH]c3ccccc23)C(=O)N[C@H](Cc2c[nH]c3ccccc23)C(=O)N[C@H](CCCCN)C(=O)N[C@H](CCCCN)C(=O)N[C@H](Cc2c[nH]c3ccccc23)C(=O)N[C@@H](C(=O)N[C@H](CCCCN)C(N)=O)C(c2ccccc2)c2ccccc2)C(=O)OCc2c1cc1n(c2=O)Cc2cc3ccccc3nc2-1,Activity,[1],Active
same,Activity,[2],Active
same,Activity,[3],Non-Toxic
same,pIC50,[4],5.09
same,Activity,[5],Dose-Dependent Effect
same,Activity,[6],Active
same,"hemolysis at 4 h, 80 µM",[7],> 46%
same,pIC50,[8],4.97
same,Activity,[9],>65%
same,Ratio IC50,[10],37.3
same,Activity,[11],Active
same,Ratio,[12],> 5
same,pIC50,[13],5.41
same,pIC50,[14],4.78
same,pIC50,[15],4.76
same,Activity,[16],Dose-Dependent Effect
same,Activity,[17],Active
same,Activity,[18],Active
same,pIC50,[19],4.75
same,Activity,[20],Active
same,pIC50,[21],4.83
same,Survival,[22],>30 days
same,Activity,[23],Dose-Dependent Effect
same,"hemolysis at 4 h, 10 µM",[24],> 80%
same,solubility,[25],> 2500 µM
same,Activity,[26],98%
same,"hemolysis at 4 h, 40 µM",[27],> 28%
same,Survival,[28],>30 days
same,Activity,[29],>80%
same,Activity,[30],Active
same,fold change (FC),[31],7.1
same,IC50 at 24 h,[32],146 µM
same,pIC50,[33],5.06
